Structures are written as SMILES.

The test system of one test is parasites (ring stage parasites, parasite growth). Description: Parasite LDH growth assay (Parasite Assay), antiparasite potency. To be noted: 72 h, 72 hours growth, LDH readout; Table 3. The format is cell-based. On the procedure: Assessing Antiparasite Potency in a Parasite LDH Growth Assay (Parasite Assay) The parasite stock was maintained at […] in RPMI-Hepes media buffered with sodium bicarbonate and supplemented with […]. […] On the day of assay set up, a blood smear of the parasite culture was Giemsa stained and counted. The parasitemia was adjusted to 0.7% rings and the haematocrit was diluted to 2% in RPMI-Hepes media buffered with sodium bicarbonate and supplemented with 500 heat inactivated human serum and 0.5% albumax. 30 ul of diluted parasites are then added into 10 ul of media+compound in pre-prepared Greiner TC assay plates. Parasite assay plates were placed in gassed humidified boxes in single layer and allowed to incubate at 37° C. for 72 hours. After 72 hours growth, assay plates are sealed with parafilm and frozen flat, in single file at −80° C. overnight. On the following day, assay plates are allowed to thaw at room temperature for 4 hours to which an LDH assay is performed to measure parasite growth.
For the compound `COCC[C@H]([C@@H]1C[C@H]1C(=O)NC1CC(C)(C)Oc2ccccc21)N1C(=N)NC(C)(C)CC1=O` (stereo partly drawn) [Example 23A], the EC50 was 16 nM. That is a double-digit nanomolar value. `COCC[C@H]([C@@H]1C[C@H]1C(=O)N[C@H]1C[C@H](C(F)(F)F)Oc2ccccc21)N1C(=N)NC(C)(C)CC1=O` [Example 24B] displayed a concentration for a half-maximal effect (EC50) of 2 nM. Against the preceding compound, the EC50 is about 8-fold lower. `CC1(C)CC(=O)N([C@H](c2cccnc2)[C@@H]2C[C@H]2C(=O)N[C@H]2CC(C)(C)Oc3ccccc32)C(=N)N1` [Example 26] yielded an EC50 of 4.7 nM. On the same count and under the same terms, the same measure for `CC1(C)CC(=O)N([C@H](c2cccnc2)[C@@H]2C[C@H]2C(=O)N[C@@H]2c3ccccc3OC(C)(C)[C@H]2O)C(=N)N1` [Example 27]: 78 nM. On to `CCC1(CC)CC(=O)N(C[C@@H]2C(C)[C@H]2C(=O)N[C@H]2C[C@H](C(F)(F)F)Oc3ccccc32)C(=N)N1` (stereo partly drawn) [Example 28A], for which the EC50 was 12 nM.

The compound `CCC1(CC)CC(=O)N(CC2C(C(=O)N[C@H]3C[C@H](C(F)(F)F)Oc4ccccc43)C2(C)C)C(=N)N1` (stereo partly drawn) [Example 31A] came in with an EC50 of 215 nM. Compound `CC1(C)CC(=O)N([C@H](c2cccnc2)[C@@H]2C[C@H]2C(=O)N[C@H]2C[C@H](C(F)(F)F)Oc3ccccc32)C(=N)N1` [Example 32] had an EC50 of 1.8 nM. Compound `CCC1(CC)CC(=O)N(C[C@@H]2C(C)[C@H]2C(=O)N[C@@H]2c3ccccc3C[C@H]2O)C(=N)N1` (stereo partly drawn) [Example 33] yielded an EC50 of 76 nM. Still for that read-out and setting: the same measure for `CCC1(CC)CC(=O)N(C[C@H]2[C@H](C(=O)N[C@H]3CC(C)(C)Oc4ccccc43)C2(C)C)C(=N)N1` [Example 34]: 286 nM.

In turn, `CCC1(CC)CC(=O)N(C[C@@H]2C(C)[C@H]2C(=O)NC2c3ccccc3OC2(C)C)C(=N)N1` (stereo partly drawn) [Example 36A] yielded an EC50 of 247 nM. Still for that read-out and setting: the same measure for `COc1ccc([C@H]([C@@H]2C[C@H]2C(=O)N[C@H]2C[C@H](C(F)(F)F)Oc3ccccc32)N2C(=N)NC(C)(C)CC2=O)cn1` [Example 37]: 1.2 nM; for `COc1ccc([C@H]([C@@H]2C[C@H]2C(=O)N[C@H]2CC(C)(C)Oc3ccccc32)N2C(=N)NC(C)(C)CC2=O)cn1` [Example 38]: 6.5 nM; for `COc1ccc([C@H]([C@@H]2C[C@H]2C(=O)N[C@@H]2c3ccccc3OC(C)(C)[C@H]2O)N2C(=N)NC(C)(C)CC2=O)cn1` [Example 39]: 10.1 nM. The same measure, in the same setting: the same measure for `COc1cncc([C@H]([C@@H]2C[C@H]2C(=O)N[C@H]2CC(C)(C)Oc3ccccc32)N2C(=N)NC(C)(C)CC2=O)c1` [Example 40]: 3.1 nM; for `COc1cncc([C@H]([C@@H]2C[C@H]2C(=O)N[C@H]2C[C@H](C(F)(F)F)Oc3ccccc32)N2C(=N)NC(C)(C)CC2=O)c1` [Example 41]: 1.1 nM.

For the compound `COc1cncc([C@H]([C@@H]2C[C@H]2C(=O)N[C@@H]2c3ccccc3OC(C)(C)[C@H]2O)N2C(=N)NC(C)(C)CC2=O)c1` [Example 42], the EC50 worked out at 18.4 nM. Still for that read-out and setting: for `CC1(C)CC(=O)N([C@H](c2cccnc2)[C@H]2[C@H](C(=O)N[C@H]3C[C@H](C(F)(F)F)Oc4ccccc43)C2(C)C)C(=N)N1` [Example 43A] the value was 4 nM; for `CC1(C)CC(=O)N([C@@H](c2cccnc2)[C@H]2[C@H](C(=O)N[C@H]3C[C@H](C(F)(F)F)Oc4ccccc43)C2(C)C)C(=N)N1` [Example 43B], 37 nM; for `CCC1(CC)CC(=O)N([C@@H](c2cccnc2)[C@H]2[C@H](C(=O)N[C@H]3C[C@H](C(F)(F)F)Oc4ccccc43)C2(C)C)C(=N)N1` [Example 44A], 8.3 nM. The same measure, in the same setting: for `CCC1(CC)CC(=O)N([C@H](c2cccnc2)[C@H]2[C@H](C(=O)N[C@H]3C[C@H](C(F)(F)F)Oc4ccccc43)C2(C)C)C(=N)N1` [Example 44B] the value was 0.9 nM.

As to `CC1(C)CC(=O)N([C@H](c2ccc(C#N)cc2)[C@@H]2C[C@H]2C(=O)N[C@H]2CC(C)(C)Oc3ccccc32)C(=N)N1` [Example 45A], the half-maximal effective concentration (EC50) came to 2.8 nM. For the compound `CC1(C)CC(=O)N([C@@H](c2ccc(C#N)cc2)[C@@H]2C[C@H]2C(=O)N[C@H]2CC(C)(C)Oc3ccccc32)C(=N)N1` [Example 45B], the concentration giving a half-maximal response (EC50) was determined as 220 nM. On the same count and under the same terms, the same measure for `CC1(C)CC(=O)N([C@H](c2ccc(C#N)cc2)[C@@H]2C[C@H]2C(=O)N[C@@H]2c3ccccc3OC(C)(C)[C@H]2O)C(=N)N1` [Example 46]: 2.5 nM; for `CC1(C)CC(=O)N([C@@H](c2ccc(C#N)cc2)[C@@H]2C[C@H]2C(=O)N[C@H]2C[C@H](C(F)(F)F)Oc3ccccc32)C(=N)N1` [Example 47A]: 155 nM.

Compound `CC1(C)CC(=O)N([C@H](c2ccc(C#N)cc2)[C@@H]2C[C@H]2C(=O)N[C@H]2C[C@H](C(F)(F)F)Oc3ccccc32)C(=N)N1` [Example 47B] registered an EC50 of 0.9 nM.

In the case of `CCC1(CC)CC(=O)N([C@H](c2cccnc2)[C@H]2[C@H](C(=O)N[C@H]3CC(C)(C)Oc4ccccc43)C2(C)C)C(=N)N1` [Example 48A], the EC50 is 2.7 nM. Same read-out and setting: for `CCC1(CC)CC(=O)N([C@@H](c2cccnc2)[C@H]2[C@H](C(=O)N[C@H]3CC(C)(C)Oc4ccccc43)C2(C)C)C(=N)N1` [Example 48B] the value was 7.4 nM; for `CC1(C)CC(=O)N(C(c2cccnc2)[C@H]2[C@H](C(=O)N[C@H]3CC(C)(C)Oc4ccccc43)C2(C)C)C(=N)N1` (stereo partly drawn) [Example 49A], 20 nM; for `CC1(C)CC(=O)N([C@H](c2cccc(C#N)c2)[C@@H]2C[C@H]2C(=O)N[C@H]2CC(C)(C)Oc3ccccc32)C(=N)N1` [Example 50], 3 nM. The compound `CC1(C)CC(=O)N([C@H](c2cccc(C#N)c2)[C@@H]2C[C@H]2C(=O)N[C@@H]2c3ccccc3OC(C)(C)[C@H]2O)C(=N)N1` [Example 51] returned a concentration giving a half-maximal response (EC50) of 5.3 nM. The same measure, in the same setting: for `CC1(C)CC(=O)N([C@H](c2cccc(C#N)c2)[C@@H]2C[C@H]2C(=O)N[C@H]2C[C@H](C(F)(F)F)Oc3ccccc32)C(=N)N1` [Example 52] the value was 1 nM.

Turning to `CC1(C)CC(=O)N(C(c2cccc(C#N)c2)[C@@H]2C[C@H]2C(=O)NC2CC(C)(C)Oc3ccc(F)cc32)C(=N)N1` (stereo partly drawn) [Example 53A], the EC50 worked out at 3.1 nM. This EC50 is about 3.1-fold higher than that of the compound before. Still for that read-out and setting: the same measure for `CCC1(CC)CC(=O)N([C@H](c2cccnc2)[C@@H]2C(C)[C@H]2C(=O)N[C@H]2C[C@H](C(F)(F)F)Oc3ccccc32)C(=N)N1` (stereo partly drawn) [Example 55A]: 0.8 nM.

`CCC1(CC)CC(=O)N([C@@H](c2cccnc2)[C@@H]2C(C)[C@H]2C(=O)N[C@H]2C[C@H](C(F)(F)F)Oc3ccccc32)C(=N)N1` (stereo partly drawn) [Example 55B] gave a concentration giving a half-maximal response (EC50) of 180 nM. On the same count and under the same terms, for `CCC1(CC)CC(=O)N([C@@H](c2cccnc2)[C@@H]2C(C)[C@H]2C(=O)N[C@H]2CC(C)(C)Oc3ccccc32)C(=N)N1` (stereo partly drawn) [Example 56A] the value was 65 nM; for `CCC1(CC)CC(=O)N([C@H](c2cccnc2)[C@@H]2C(C)[C@H]2C(=O)N[C@H]2CC(C)(C)Oc3ccccc32)C(=N)N1` (stereo partly drawn) [Example 56B], 0.7 nM; for `CC1[C@@H]([C@@H](c2cccnc2)N2C(=N)NC(C)(C)CC2=O)[C@@H]1C(=O)N[C@H]1CC(C)(C)Oc2ccccc21` (stereo partly drawn) [Example 57A], 3.2 nM. Still for that read-out and setting: for `CC1[C@@H]([C@H](c2cccnc2)N2C(=N)NC(C)(C)CC2=O)[C@@H]1C(=O)N[C@H]1CC(C)(C)Oc2ccccc21` (stereo partly drawn) [Example 57B] the value was 100 nM; for `CC1(C)CC(=O)N([C@@H](c2cncc(Cl)c2)[C@@H]2C[C@H]2C(=O)N[C@H]2CC(C)(C)Oc3ccccc32)C(=N)N1` [Example 58A], 210 nM. Still for that read-out and setting: the same measure for `CC1(C)CC(=O)N([C@H](c2cncc(Cl)c2)[C@@H]2C[C@H]2C(=O)N[C@H]2CC(C)(C)Oc3ccccc32)C(=N)N1` [Example 58B]: 1 nM; for `CC1(C)CC(=O)N([C@H](c2cncc(Cl)c2)[C@@H]2C[C@H]2C(=O)N[C@@H]2c3ccccc3OC(C)(C)[C@H]2O)C(=N)N1` [Example 59]: 3.8 nM. On to `CC1(C)CC(=O)N([C@H](c2cncc(Cl)c2)[C@@H]2C[C@H]2C(=O)N[C@H]2C[C@H](C(F)(F)F)Oc3ccccc32)C(=N)N1` [Example 60A], for which the concentration giving a half-maximal response (EC50) was found to be 0.5 nM. The same measure, in the same setting: the same measure for `CC1(C)CC(=O)N([C@@H](c2cncc(Cl)c2)[C@@H]2C[C@H]2C(=O)N[C@H]2C[C@H](C(F)(F)F)Oc3ccccc32)C(=N)N1` [Example 60B]: 100 nM; for `CC[C@]1(C)CC(=O)N([C@H](CCOC)[C@@H]2C[C@H]2C(=O)N[C@@H]2c3ccccc3OC(C)(C)[C@H]2O)C(=N)N1` [Example 61]: 6.9 nM.

The test is the same for the next values; noted with them: 72 hours growth, LDH readout; Table 3.
Compound `COCC[C@H]([C@@H]1C[C@H]1C(=O)NC1CC(C)(C)Oc2ccccc21)N1C(=N)NC(C)(C)CC1=O` (stereo partly drawn) [Example 23B] gave an EC50 of 15 nM. In turn, `COCC[C@H]([C@@H]1C[C@H]1C(=O)N[C@@H]1C[C@@H](C(F)(F)F)Oc2ccccc21)N1C(=N)NC(C)(C)CC1=O` [Example 24A] gave a concentration for a half-maximal effect (EC50) of 3.4 nM. On the same count and under the same terms, for `COCC[C@H]([C@@H]1C[C@H]1C(=O)N[C@@H]1C[C@@H](C(F)(F)F)Oc2ccccc21)N1C(=N)NC(C)(C)CC1=O` [Example 24C] the value was 120 nM. Still for that read-out and setting: the same measure for `CCC1(CC)CC(=O)N(C[C@@H]2C(C)[C@H]2C(=O)N[C@H]2C[C@H](C(F)(F)F)Oc3ccccc32)C(=N)N1` (stereo partly drawn) [Example 28B]: 14 nM; for `CCC1(CC)CC(=O)N(C[C@@H]2C(C)[C@H]2C(=O)NC2c3ccccc3OC2(C)C)C(=N)N1` (stereo partly drawn) [Example 36B]: 301 nM; for `CC1(C)CC(=O)N(C(c2cccnc2)[C@H]2[C@H](C(=O)N[C@H]3CC(C)(C)Oc4ccccc43)C2(C)C)C(=N)N1` (stereo partly drawn) [Example 49B]: 14 nM. Same read-out and setting: for `CC1(C)CC(=O)N(C(c2cccc(C#N)c2)[C@@H]2C[C@H]2C(=O)NC2CC(C)(C)Oc3ccc(F)cc32)C(=N)N1` (stereo partly drawn) [Example 53B] the value was 2.1 nM.

As usually defined, the EC50 is the concentration at which the effect is half-maximal. Low readings indicate higher potency in that assay, high ones lower potency in that assay.

The values are drawn from patent US12338219B2, “Antimalarial agents” (Merck Sharp & Dohme LLC, priority 2019, dated 2025).
